From patent publication US8680059B2, “Oligopeptide acetate and formulations thereof” (Biotempt B.V., priority 1998, dated 2014)
Values joined by “and” are separate entries in the source; they are usually repeats but may differ in a detail not shown here. Equal values may be shown once. Peptide text beside a SMILES is read from it.

Tests used:
[1] = Phase I human trial: plasma pharmacokinetics of EA-230; assay type: in vivo; conditions: for tmax: 15-min infusion; for AUC(0-t) / Cmax: plasma, iv
Description: (§1) Part 1: A Phase I, double blind, randomized, single dose, placebo controlled, dose escalation study with 4 groups of 8 subjects (Groups 1-4). In each group 6 subjects were randomized to active medication and 2 to placebo. The first group received a single intravenous injection of EA-230 or placebo. After all subjects had completed Day 7 assessments, the safety review board decided on continuation of the study until the maximum tolerated dose had been assessed or the highest dose. Placebo subjects were pooled for analysis.
(§2) Part 2: A Phase I, double blind, randomized, single dose, placebo controlled study. The second part consisted of 1 group of 12 subjects (Group 5). All twelve subjects received LPS (4 ng/kg E. coli EC6) as a 2-minute injection, 30 minutes prior to EA-230 administration. […] Cytokines profiles were assessed to establish the effect of EA-230 on inflammatory parameters.
Plasma concentration time profiles of EA-230 were analyzed. Pharmacokinetic parameters AUC, clearance, volume of distribution and elimination half-life were obtained for EA-230.
PK samples were collected pre-dose and from 5 minutes to 4 hours after the start of study drug administration.

healthy male subjects = experiment: Phase I human trial: safety; assay type: in vivo
Description: as §1, §2
Adverse events (AEs), vital signs, ECG, hematology, clinical chemistry, and urinalysis.
Incidence of treatment emergent AEs and treatment emergent treatment related AEs were summarized. Hematological, biochemical, urinalysis parameters, vital signs and their changes from baseline were summarized over time using n, mean, standard deviation, median and range.

[2] = test system: BALB/c mice injected i.p. with LPS (E. coli 026:B6); experiment: LPS-induced septic shock (endotoxin model) in BALB/c mice; assay type: in vivo, mouse; set-up: key to Sickness score of individual mouse: 0: No abnormalities.; 1: Percolated fur, but no detectable behavior differences compared to normal mice.; 2: Percolated fur, huddle reflex, responds to stimuli (such as tap on cage), just as active during handling as healthy mouse.; 3: Slower response to tap on cage, passive or docile when handled, but still curious when alone in a new setting.; 4: Lack of curiosity, little or no response to stimuli, quite immobile.; 5: Labored breathing, inability or slow to self-right after being rolled onto back (moribund, sacrificed).; Dead; conditions: for Survival %: group of 6, 48 hrs
Description: Mice used in sepsis or septic shock experiments: Female BALB/c mice of 8-12 weeks of age were used for all experiments. The animals were bred in our facility under specific pathogen-free conditions according to the protocols described in the Report of European Laboratory Animal Science Associations (FELASA) Working group on Animal Health (Laboratory Animals 28: 1-24, 1994).
Injection protocols: For the endotoxin model, BALB/c mice were injected i.p. with 150-300 μg LPS (E. coli 026:B6; Difco Lab., Detroit, Mich., USA). Control groups were treated with PBS i.p. only. To test the effect of peptides, they were dissolved in PBS and injected i.p. at predetermined points in time after LPS treatment.
Mice were scored for sickness severity using the following measurement scheme: • 0 No abnormalities. • 1 Percolated fur, but no detectable behavior differences compared to normal mice. • 2 Percolated fur, huddle reflex, responds to stimuli (such as tap on cage), just as active during handling as healthy mouse. • 3 Slower response to tap on cage, passive or docile when handled, but still curious when alone in a new setting. • 4 Lack of curiosity, little or no response to stimuli, quite immobile. • 5 Labored breathing, inability or slow to self-right after being rolled onto back (moribund, sacrificed). • D Dead […]
A comparative trial was set up to compare peptide MTR and SEQ ID NO:2. The comparative trial comprised 6 groups of 6 animals; two groups (1A and 1B) receiving placebo (PBS), one group (2) peptide MTR (source Pepscan, Lelystad, NL), one group (3) receiving peptide MTR (source Ansynth), one group (4) receiving peptide SEQ ID NO:2 (source Pepscan) and one group peptide SEQ ID NO:2 (source Ansynth). Peptide/placebo in these groups was administered 2 hours after LPS. LPS (source) was used at 10-11 mg/kg. Sickness scores were done at 0, 2, 22 26 42 and 48 hours after LPS injection.

[3] = test system: mice, 25 minutes renal ischemia/reperfusion; experiment: Mouse renal ischemia reperfusion test (mortality, BUN/serum urea); assay type: in vivo; set-up: BUN, mean / Urea level: unit not given here
Description: SEQ ID NO:2 was tested and compared with PBS (control) in a double blind animal study for the peptide's relative ability to aid recovery in a mouse renal ischemia reperfusion test. In this test, the mice were anesthetized, and one kidney from each mouse was removed. The other kidney was tied off for 25 minutes, and the serum urea levels were allowed to increase. Both before and after tying off, the peptide was administered to thirty (30) different mice (5 mg oligopeptide/kg body mass intravenously), after which, the mortality of the mice was determined for each oligopeptide as well as was the BUN concentration at two hours, 24 hours and 72 hours.
Under inhalation anesthesia, the left kidney with its artery and vein was isolated and occluded for 25 minutes using a microvascular clamp. During surgery animals were placed on a heating path to maintain body temperature at 37° C. Five minutes before placing the clamp, and 5 minutes before releasing the clamp, 5 mg/kg of peptide, dissolved in 0.1 mL of sterile saline, was administered intravenously. After reperfusion of the left kidney the right kidney was removed. Kidney function was assessed by measuring blood urea nitrogen before clamping, and at 2, 24, and 72 hours after reperfusion.
To determine dose-response relationships SEQ ID NO:2, was tested in a dose-response manner in the mice test as described above. Peptides were tested at 0.3, 1, 3, 10 and 30 mg/kg dosages given as described in Example I. Serum urea levels are presented in Table 3.

[4] = 1 mg/kg, 1 mg/kg i.v. 2-min infusion, N = 6, arithmetic mean ± SD
[5] = 3 mg/kg, 3 mg/kg i.v. 2-min infusion, N = 6, arithmetic mean ± SD
[6] = 10 mg/kg, 10 mg/kg i.v. 15-min infusion, N = 6, arithmetic mean ± SD
[7] = 10 mg/kg, Part 2, LPS + 10 mg/kg i.v. 15-min infusion, arithmetic mean ± SD
[8] = 30 mg/kg, 30 mg/kg i.v. 15-min infusion, N = 6, arithmetic mean ± SD

Question: For `CC(C)[C@H](NC(=O)CNC(=O)[C@H](CCC(N)=O)NC(=O)[C@H](C)N)C(=O)O` [EA-230, H-Ala-Gln-Gly-Val-OH.xAcOH] (H-AQGV-OH), which tmax ([1]; 10 mg/kg EA-230 alone) is on record?
Answer: The tmax was 5 minutes before the end of infusion.

Question: And the “time by which average plasma concentrations were below LOQ” value ([1]; 1-mg/kg dose)?
Answer: Its value is at most 15 min.

Question: What about the “time by which average plasma concentrations were below LOQ” value ([1]; 30-mg/kg dose, after dosing) of the same molecule?
Answer: The value was at most 120 min.

Question: And the tmax ([1]; most subjects, 10 mg/kg EA-230 with LPS challenge)?
Answer: Its tmax is 10 minutes before the end of infusion.

Question: What about the AUC(0-t) [1, 4] of the same molecule?
Answer: The AUC(0-t) was 2.5 ng·h/mL.

Question: What about the Cmax [1, 4] of the same molecule?
Answer: Its Cmax is 32.5 ng/mL.

Question: And the AUC(0-t) [1, 5]?
Answer: The AUC(0-t) was 11.8 ng·h/mL.

Question: What about the Cmax [1, 5] of the same molecule?
Answer: Its Cmax is 132 ± 76.4 ng/mL.

Question: And the AUC(0-t) [1, 6]?
Answer: The AUC(0-t) was 217 ng·h/mL.

Question: What about the Cmax [1, 6] of the same molecule?
Answer: Its Cmax is 1600 ± 1130 ng/mL.

Question: And the AUC(0-t) [1, 7]?
Answer: The AUC(0-t) was 303 ng·h/mL.

Question: What about the Cmax [1, 7] of the same molecule?
Answer: The Cmax was 1710 ± 1330 ng/mL.

Question: And the AUC(0-t) [1, 8]?
Answer: Its AUC(0-t) is 595 ng·h/mL.

Question: And the Cmax [1, 8]?
Answer: The Cmax was 3220 ± 1080 ng/mL.

Question: And the elimination from plasma ([1]; single i.v. dose 1-30 mg/kg)?
Answer: Its elimination from plasma is “rapidly eliminated”.

Question: What about the “AE occurrence, placebo vs active subjects” value (healthy male subjects) of the same molecule?
Answer: The value was “No difference in AE occurrence”.

Question: And the “safety and tolerability of a single dose” value (healthy male subjects; 1 mg/kg to 30 mg/kg i.v.)?
Answer: Its value is “safe and well tolerated”.

Question: And the “number or intensity of AEs with the dose” value (healthy male subjects; escalating dose part 1-30 mg/kg)?
Answer: The value was “No increase in the number or intensity of AEs”.

Question: And the QTc (healthy male subjects; whole study)?
Answer: Its QTc is “No abnormal QTc”.

Question: And the “serious adverse events (SAE)” value (healthy male subjects; whole study)?
Answer: Its value is “No SAE occurred”.

Question: With MTR as the molecule, how does the “Sickness score of individual mouse” value ([2]; source Ansynth (#Ansynth 12/46) 2 hours after LPS 10-11 mg/kg, 0 hrs (before peptide)) read?
Answer: Its value is 0.

Question: And the “Sickness score of individual mouse” value ([2]; source Ansynth (#Ansynth 12/46) 2 hours after LPS 10-11 mg/kg, 2 hrs (at peptide administration))?
Answer: Its value is 2.

Question: What about the “Sickness score of individual mouse” value ([2]; source Ansynth (#Ansynth 12/46) 2 hours after LPS 10-11 mg/kg, 22 hrs) of the same molecule?
Answer: The value was 2 (4×) and 4 and 3.

Question: And the “Sickness score of individual mouse” value ([2]; source Ansynth (#Ansynth 12/46) 2 hours after LPS 10-11 mg/kg, 26 hrs)?
Answer: Its value is 1 and 2 (2×) and 5 and 4 and 3.

Question: And the “Sickness score of individual mouse” value ([2]; source Ansynth (#Ansynth 12/46) 2 hours after LPS 10-11 mg/kg, 42 hrs)?
Answer: Its value is 1 and 2 (2×) and dead and 4 and 5.

Question: And the “Sickness score of individual mouse” value ([2]; source Ansynth (#Ansynth 12/46) 2 hours after LPS 10-11 mg/kg, 48 hrs)?
Answer: Its value is 1 (2×) and dead (2×) and 2.

Question: What about the Survival % ([2]; source Ansynth (#Ansynth 12/46) 2 hours after LPS 10-11 mg/kg) of the same molecule?
Answer: The Survival % was 50%.

Question: What about the “Sickness score of individual mouse” value ([2]; source Pepscan (#970/#971) 5 mg/kg 2 hours after LPS 10-11 mg/kg, 0 hrs (before peptide)) of the same molecule?
Answer: Its value is 0.

Question: And the “Sickness score of individual mouse” value ([2]; source Pepscan (#970/#971) 5 mg/kg 2 hours after LPS 10-11 mg/kg, 2 hrs (at peptide administration))?
Answer: Its value is 2.

Question: And the “Sickness score of individual mouse” value ([2]; source Pepscan (#970/#971) 5 mg/kg 2 hours after LPS 10-11 mg/kg, 22 hrs)?
Answer: Its value is “dead and 3 and 2 (3×) and 4”.

Question: What about the “Sickness score of individual mouse” value ([2]; source Pepscan (#970/#971) 5 mg/kg 2 hours after LPS 10-11 mg/kg, 26 hrs) of the same molecule?
Answer: The value was 3 and 2 (3×) and 5.

Question: What about the “Sickness score of individual mouse” value ([2]; source Pepscan (#970/#971) 5 mg/kg 2 hours after LPS 10-11 mg/kg, 42 hrs) of the same molecule?
Answer: The value was 5 and 2 (2×) and 4 and dead.

Question: And the “Sickness score of individual mouse” value ([2]; source Pepscan (#970/#971) 5 mg/kg 2 hours after LPS 10-11 mg/kg, 48 hrs)?
Answer: Its value is “dead (2×) and 2 (2×)”.

Question: And the Survival % ([2]; source Pepscan (#970/#971) 5 mg/kg 2 hours after LPS 10-11 mg/kg)?
Answer: The Survival % was 33%.

Question: Which Urea level ([3]; 0.3 mg/kg, 24 h) does the source give for AQG here?
Answer: The Urea level was 38.4.

Question: And the Urea level ([3]; 0.3 mg/kg, 72 h)?
Answer: The Urea level was 30.4.

Question: And the Urea level ([3]; 1.0 mg/kg, 24 h)?
Answer: The Urea level was 48.4.

Question: And the Urea level ([3]; 1.0 mg/kg, 72 h)?
Answer: Its Urea level is 38.4.

Question: What about the Urea level ([3]; 3.0 mg/kg, 24 h) of the same molecule?
Answer: The Urea level was 39.3.

Question: And the Urea level ([3]; 3.0 mg/kg, 72 h)?
Answer: The Urea level was 40.3.

Question: And the Urea level ([3]; 10.0 mg/kg, 24 h)?
Answer: Its Urea level is 46.8.

Question: What about the Urea level ([3]; 10.0 mg/kg, 72 h) of the same molecule?
Answer: Its Urea level is 25.8.

Question: And the Urea level ([3]; 30.0 mg/kg, 24 h)?
Answer: The Urea level was 52.8.

Question: What about the Urea level ([3]; 30.0 mg/kg, 72 h) of the same molecule?
Answer: Its Urea level is 58.9.
